Measured values reported in article PMC3566223 (Cancer prevention research (Philadelphia, Pa.), 2012).

Tests used:
[1] = Curcuminoid levels in colonic mucosa biopsies; assay type: in vivo, human; conditions: for Mucosal level, mean concentration ± SEM, unwashed, surgical biopsies / Mucosal level, mean concentration ± SEM, washed, surgical biopsies / Mucosal level, mean concentration ± SEM, unwashed, endoscopy biopsies / Mucosal level, mean concentration ± SEM, washed, endoscopy biopsies: patients, oral Curcumin C3 complex 2.35 g once daily 14 days; for Mucosal level, mean concentration ± SEM, unwashed, surgical biopsies / Mucosal level, mean concentration ± SEM, washed, surgical biopsies: n=5; for Mucosal level, mean concentration ± SEM, unwashed, endoscopy biopsies / Mucosal level, mean concentration ± SEM, washed, endoscopy biopsies: n=30
[2] = Curcuminoid levels in plasma; assay type: in vivo, human; conditions: of 24 participants
[3] = Curcuminoid levels in 24 h urine collection; assay type: in vivo, human; conditions: 24 h urine between last two doses
Adverse event monitoring = assay type: in vivo, human
[4] = Pre- and post-trial self-reported questionnaire; assay type: in vivo, human; conditions: 24 participants completing the 2 week course; period of administration
[5] = system: Apc^Min mouse model of inherited colorectal cancer; conditions: dietary curcumin; cited from earlier work
[6] = cited from earlier work
[7] = one participant, right hemi-colectomy, no bowel preparation of biopsied area
[8] = AEs possibly or probably attributable

For COc1cc(/C=C/C(=O)CC(=O)/C=C/c2ccc(O)c(OC)c2)ccc1O [Curcumin, curcumin], the “Surface curcumin level, single participant” value [1, 7] was 551.1 µg/g, the “Tissue curcumin level, single participant” value [1, 7] was 228.3 µg/g and the “Mean pre-wash curcumin level, left-sided paired endoscopic biopsies” value ([1]; oral Curcumin C3 complex 2.35 g daily 14 days, paired left-sided, n=12 pairs) was 9.0 µg/g. For the same compound, the “Mean pre-wash curcumin level, right-sided paired endoscopic biopsies” value ([1]; oral Curcumin C3 complex 2.35 g daily 14 days, paired right-sided, n=12 pairs) was 35.4 µg/g, the “Decrease in tissue curcumin after consecutive washes” value ([1]; paired right-sided biopsy samples) was 74% and the “Mucosal level, mean concentration ± SEM, unwashed, surgical biopsies” value [1] was 75.32 ± 39.71 µg/g. The “Mucosal level, mean concentration ± SEM, washed, surgical biopsies” value [1] was 12.50 ± 3.07 µg/g, the “Mucosal level, mean concentration ± SEM, unwashed, endoscopy biopsies” value [1] was 42.31 ± 23.68 µg/g and the “Mucosal level, mean concentration ± SEM, washed, endoscopy biopsies” value [1] was 19.91 ± 7.87 µg/g. The “Persistence of high curcumin levels in mucosa post-administration” value ([1]; time after last dose at which mucosa was biopsied) was “up to 40 h”, the “Quantifiable in plasma (number of participants)” value [2] was 4 and the “Urine level, mean” value [3] was 27.0 ng/mL. For the same compound, the “Urine curcumin level, range” value ([3]; 12 participants with quantifiable levels) was 0.67 to 503.3 ng/mL, the “Total gastrointestinal events, number of patients” value (Adverse event monitoring; 26 patients commenced curcumin) was 6 and the “Abdominal pain, number of events” value (Adverse event monitoring; [8]) was 3. The “Bloating, number of events” value (Adverse event monitoring; [8]) was 1, the “Diarrhoea, number of events” value (Adverse event monitoring; [8]) was 3 and the “Dyspepsia, number of events” value (Adverse event monitoring; [8]) was 1. The “Flatulence, number of events” value (Adverse event monitoring; [8]) was 1, the “Nausea, number of events” value (Adverse event monitoring; [8]) was 2 and the “Vomiting, number of events” value (Adverse event monitoring; [8]) was 2. The “Total gastrointestinal events, number of events” value (Adverse event monitoring; AEs possibly or probably attributable, Curcumin C3 complex 2.35 g daily 14 days) was 13, the “Serious adverse events (SAEs) attributable to curcumin” value (Adverse event monitoring; Curcumin C3 complex 2.35 g daily 14 days) was “no serious adverse events” and the “Abdominal pain, grade” value (Adverse event monitoring; NCI-CTC v3.0 grade) was 1,2. The “Bloating, grade” value (Adverse event monitoring; NCI-CTC v3.0 grade) was 2, the “Diarrhoea, grade” value (Adverse event monitoring; NCI-CTC v3.0 grade) was 1 and the “Dyspepsia, grade” value (Adverse event monitoring; NCI-CTC v3.0 grade) was 1. For the same compound, the “Flatulence, grade” value (Adverse event monitoring; NCI-CTC v3.0 grade) was 1, the “Nausea, grade” value (Adverse event monitoring; NCI-CTC v3.0 grade) was 1,2 and the “Total gastrointestinal events, grade” value (Adverse event monitoring; NCI-CTC v3.0 grade) was 1 - 2. For the same compound, the “Vomiting, grade” value (Adverse event monitoring; NCI-CTC v3.0 grade) was 1,2, the “Abdominal pain, number of patients” value (Adverse event monitoring; in vivo) was 3 and the “Bloating, number of patients” value (Adverse event monitoring; in vivo) was 1. For the same compound, the “Diarrhoea, number of patients” value (Adverse event monitoring; in vivo) was 3, the “Dyspepsia, number of patients” value (Adverse event monitoring; in vivo) was 1 and the “Flatulence, number of patients” value (Adverse event monitoring; in vivo) was 1. The “Nausea, number of patients” value (Adverse event monitoring; in vivo) was 2, the “Vomiting, number of patients” value (Adverse event monitoring; in vivo) was 2 and the “Experienced abdominal pain, post-trial responses” value [4] was 21 % participants. For the same compound, the “Experienced bowel incontinence, post-trial responses” value [4] was 12 % participants, the “Experienced constipation, post-trial responses” value [4] was 13 % participants and the “Experienced diarrhoea, post-trial responses” value [4] was 38 % participants. The “Reduction of adenoma formation” value [5] was 39-64% and the Lipophilicity [6] was “highly lipophilic”.
With COc1cc(/C=C/C(=O)CC(=O)/C=C/c2ccc(O)cc2)ccc1O [Desmethoxycurcumin, desmethoxycurcumin] the “Detectable in mucosal samples (number of biopsies)” value ([1]; of 35 mucosal samples, oral Curcumin C3 complex 2.35 g daily 14 days) was 27 out of 35, the “Mucosal level, mean concentration ± SEM, unwashed, surgical biopsies” value [1] was 10.42 ± 6.52 µg/g and the “Mucosal level, mean concentration ± SEM, washed, surgical biopsies” value [1] was 1.27 ± 0.42 µg/g. The “Mucosal level, mean concentration ± SEM, unwashed, endoscopy biopsies” value [1] was 6.33 ± 3.75 µg/g and the “Mucosal level, mean concentration ± SEM, washed, endoscopy biopsies” value [1] was 4.03 ± 1.69 µg/g.
